Among the data in ChEMBL document CHEMBL5291721, “A preclinical secondary pharmacology resource illuminates target-adverse drug reaction associations of marketed drugs” (Nat Commun, 2023) are AC50 values, retold here.

What is called AC50 is the concentration giving half of the maximal activity seen.

Where only a bound is given, the exact number is not on record here.

Assay [1] has as its target Sodium-dependent dopamine transporter (Homo sapiens, UniProt Q01959).
The target of assay [2] is T1, Amine oxidase [flavin-containing] A (Homo sapiens, UniProt P21397).
T1 sequence (P21397 whole entry): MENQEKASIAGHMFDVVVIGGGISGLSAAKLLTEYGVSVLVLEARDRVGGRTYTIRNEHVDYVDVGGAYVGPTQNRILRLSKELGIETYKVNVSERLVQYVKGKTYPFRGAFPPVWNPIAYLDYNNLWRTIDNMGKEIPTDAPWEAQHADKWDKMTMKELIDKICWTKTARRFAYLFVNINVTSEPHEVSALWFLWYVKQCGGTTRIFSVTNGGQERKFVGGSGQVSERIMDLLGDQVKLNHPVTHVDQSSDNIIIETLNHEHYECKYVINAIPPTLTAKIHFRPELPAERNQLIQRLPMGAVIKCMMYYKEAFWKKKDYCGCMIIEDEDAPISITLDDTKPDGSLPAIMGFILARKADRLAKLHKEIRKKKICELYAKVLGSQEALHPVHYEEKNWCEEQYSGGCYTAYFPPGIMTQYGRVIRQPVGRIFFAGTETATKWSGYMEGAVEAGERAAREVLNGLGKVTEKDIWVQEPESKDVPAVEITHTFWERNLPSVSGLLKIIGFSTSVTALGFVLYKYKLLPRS
The class given is functional.

A further assay has as its target Mu-type opioid receptor (Homo sapiens, UniProt P35372).
Assay [3] concerns the target T2, Muscarinic acetylcholine receptor M2 (Homo sapiens, UniProt P08172).
T2 sequence (P08172 whole entry): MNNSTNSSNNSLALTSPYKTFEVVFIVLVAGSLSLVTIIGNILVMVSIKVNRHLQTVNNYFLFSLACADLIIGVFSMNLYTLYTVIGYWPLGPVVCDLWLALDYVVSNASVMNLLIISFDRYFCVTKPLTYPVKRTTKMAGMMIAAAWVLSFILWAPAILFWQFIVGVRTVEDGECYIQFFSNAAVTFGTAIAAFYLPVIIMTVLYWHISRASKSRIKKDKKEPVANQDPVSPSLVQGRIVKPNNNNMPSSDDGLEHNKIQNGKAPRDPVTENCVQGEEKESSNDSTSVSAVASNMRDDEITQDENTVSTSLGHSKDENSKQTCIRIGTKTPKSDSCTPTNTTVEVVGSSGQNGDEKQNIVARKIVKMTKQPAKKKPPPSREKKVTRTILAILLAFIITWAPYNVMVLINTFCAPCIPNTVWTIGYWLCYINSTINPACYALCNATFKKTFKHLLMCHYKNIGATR

The target of another assay is Prothrombin (Homo sapiens, UniProt P00734). The assay is classed as functional.
For assay [4], the target named is Prostaglandin G/H synthase 1 (Homo sapiens, UniProt P23219). The class given is functional.
Assay [5] deals with Delta-type opioid receptor (Homo sapiens, UniProt P41143).
Assay [6] concerns the target T3, Neuropeptide Y receptor type 1 (Homo sapiens, UniProt P25929).
T3 sequence (P25929 whole entry): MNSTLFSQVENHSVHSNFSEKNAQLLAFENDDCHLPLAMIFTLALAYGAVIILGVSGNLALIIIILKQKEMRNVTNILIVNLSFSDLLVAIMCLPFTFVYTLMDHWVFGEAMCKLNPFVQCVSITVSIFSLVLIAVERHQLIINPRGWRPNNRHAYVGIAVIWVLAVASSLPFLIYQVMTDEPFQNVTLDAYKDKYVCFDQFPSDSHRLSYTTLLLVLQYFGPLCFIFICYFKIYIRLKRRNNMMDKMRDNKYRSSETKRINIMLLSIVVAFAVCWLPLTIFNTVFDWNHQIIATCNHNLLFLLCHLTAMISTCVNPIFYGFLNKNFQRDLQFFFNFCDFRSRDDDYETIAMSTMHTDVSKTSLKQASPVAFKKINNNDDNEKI
The settings on record: read-out: AC50.

The target of assay [7] is T4, Alpha-2C adrenergic receptor (Homo sapiens, UniProt P18825).
T4 sequence (P18825 whole entry): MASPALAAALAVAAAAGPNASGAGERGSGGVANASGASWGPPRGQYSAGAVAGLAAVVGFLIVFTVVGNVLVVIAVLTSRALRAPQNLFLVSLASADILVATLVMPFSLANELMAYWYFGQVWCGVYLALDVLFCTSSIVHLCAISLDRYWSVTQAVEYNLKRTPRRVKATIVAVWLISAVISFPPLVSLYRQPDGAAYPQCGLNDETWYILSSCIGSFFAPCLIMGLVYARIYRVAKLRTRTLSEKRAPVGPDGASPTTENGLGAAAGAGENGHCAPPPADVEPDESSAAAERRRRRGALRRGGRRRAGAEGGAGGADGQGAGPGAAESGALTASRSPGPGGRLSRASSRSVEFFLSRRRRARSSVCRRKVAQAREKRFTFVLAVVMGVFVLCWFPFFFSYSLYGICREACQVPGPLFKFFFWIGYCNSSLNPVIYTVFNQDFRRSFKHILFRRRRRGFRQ
The assay is classed as functional.

Assay [8] has as its target Gamma-aminobutyric acid receptor subunit alpha-1 (Rattus norvegicus, UniProt P62813).
For assay [9], the target named is Voltage-gated inwardly rectifying potassium channel KCNH2 (Homo sapiens, UniProt Q12809). The class given is functional.
Assay [10] has as its target T5, Prostaglandin G/H synthase 1 (Rattus norvegicus, UniProt Q63921).
T5 sequence (Q63921 whole entry): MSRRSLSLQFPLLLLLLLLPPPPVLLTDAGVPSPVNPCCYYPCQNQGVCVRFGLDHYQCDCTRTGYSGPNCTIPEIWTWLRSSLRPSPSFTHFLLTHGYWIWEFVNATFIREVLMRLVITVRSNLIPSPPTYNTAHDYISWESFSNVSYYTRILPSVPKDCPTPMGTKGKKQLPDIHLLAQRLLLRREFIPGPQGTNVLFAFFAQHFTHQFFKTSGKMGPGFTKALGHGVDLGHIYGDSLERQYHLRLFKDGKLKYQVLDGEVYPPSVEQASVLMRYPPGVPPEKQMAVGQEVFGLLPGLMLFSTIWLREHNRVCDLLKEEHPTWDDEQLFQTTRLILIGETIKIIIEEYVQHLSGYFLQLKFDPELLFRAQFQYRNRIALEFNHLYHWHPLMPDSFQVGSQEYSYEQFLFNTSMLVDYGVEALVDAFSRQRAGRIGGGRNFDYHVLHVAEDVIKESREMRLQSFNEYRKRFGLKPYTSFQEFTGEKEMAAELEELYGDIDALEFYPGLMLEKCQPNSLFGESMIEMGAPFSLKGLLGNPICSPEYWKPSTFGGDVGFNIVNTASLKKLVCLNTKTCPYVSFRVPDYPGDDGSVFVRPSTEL
The assay is classed as functional.
Also: assay procedure not described here.

Sequence of Voltage-gated inwardly rectifying potassium channel KCNH2 (Q12809 whole entry): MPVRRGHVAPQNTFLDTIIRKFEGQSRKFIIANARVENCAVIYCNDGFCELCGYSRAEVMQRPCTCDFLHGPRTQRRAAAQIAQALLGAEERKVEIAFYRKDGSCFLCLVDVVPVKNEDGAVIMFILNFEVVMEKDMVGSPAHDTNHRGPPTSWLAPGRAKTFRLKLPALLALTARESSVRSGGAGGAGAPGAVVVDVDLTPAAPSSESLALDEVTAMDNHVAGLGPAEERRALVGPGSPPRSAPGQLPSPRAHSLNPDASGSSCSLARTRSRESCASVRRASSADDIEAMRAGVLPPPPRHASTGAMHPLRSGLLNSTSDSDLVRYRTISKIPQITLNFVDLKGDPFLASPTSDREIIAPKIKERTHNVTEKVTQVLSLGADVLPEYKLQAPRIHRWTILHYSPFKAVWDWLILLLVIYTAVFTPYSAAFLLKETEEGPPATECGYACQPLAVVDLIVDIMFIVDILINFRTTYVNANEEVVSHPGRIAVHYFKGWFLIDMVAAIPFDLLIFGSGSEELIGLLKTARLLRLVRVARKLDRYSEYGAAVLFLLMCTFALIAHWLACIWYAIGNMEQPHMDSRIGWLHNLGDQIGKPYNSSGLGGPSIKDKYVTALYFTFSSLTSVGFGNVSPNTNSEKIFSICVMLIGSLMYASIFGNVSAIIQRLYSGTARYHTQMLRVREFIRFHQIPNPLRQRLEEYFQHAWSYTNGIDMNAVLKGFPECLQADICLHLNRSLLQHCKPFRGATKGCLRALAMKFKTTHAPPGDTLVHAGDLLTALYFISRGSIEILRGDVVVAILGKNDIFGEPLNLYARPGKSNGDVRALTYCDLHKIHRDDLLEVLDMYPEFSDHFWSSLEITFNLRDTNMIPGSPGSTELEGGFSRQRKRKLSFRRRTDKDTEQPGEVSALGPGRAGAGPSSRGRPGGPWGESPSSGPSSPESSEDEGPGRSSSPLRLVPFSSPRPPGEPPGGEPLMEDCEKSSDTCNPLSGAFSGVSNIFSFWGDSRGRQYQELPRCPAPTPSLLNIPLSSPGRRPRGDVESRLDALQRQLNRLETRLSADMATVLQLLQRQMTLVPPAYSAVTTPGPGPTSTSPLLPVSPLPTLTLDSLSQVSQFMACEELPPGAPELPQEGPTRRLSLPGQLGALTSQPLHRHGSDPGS
Sequence of Prostaglandin G/H synthase 1 (Homo sapiens, UniProt P23219) (P23219 whole entry): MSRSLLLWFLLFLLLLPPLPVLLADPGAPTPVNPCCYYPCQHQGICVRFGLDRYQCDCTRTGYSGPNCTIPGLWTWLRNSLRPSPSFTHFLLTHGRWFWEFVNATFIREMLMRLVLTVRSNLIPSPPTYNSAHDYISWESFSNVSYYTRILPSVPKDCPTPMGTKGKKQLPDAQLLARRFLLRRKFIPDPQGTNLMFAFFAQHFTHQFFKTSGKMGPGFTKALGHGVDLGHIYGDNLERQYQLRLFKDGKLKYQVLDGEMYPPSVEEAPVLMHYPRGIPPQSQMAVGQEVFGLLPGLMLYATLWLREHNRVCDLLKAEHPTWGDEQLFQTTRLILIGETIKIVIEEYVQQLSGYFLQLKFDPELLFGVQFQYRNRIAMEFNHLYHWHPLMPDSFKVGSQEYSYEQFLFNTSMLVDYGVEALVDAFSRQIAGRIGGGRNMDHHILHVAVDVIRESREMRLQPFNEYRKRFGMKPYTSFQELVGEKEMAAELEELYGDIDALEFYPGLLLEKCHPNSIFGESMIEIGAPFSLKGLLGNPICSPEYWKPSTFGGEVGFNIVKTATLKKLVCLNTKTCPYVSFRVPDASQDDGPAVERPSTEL
Sequence of Delta-type opioid receptor (P41143 whole entry): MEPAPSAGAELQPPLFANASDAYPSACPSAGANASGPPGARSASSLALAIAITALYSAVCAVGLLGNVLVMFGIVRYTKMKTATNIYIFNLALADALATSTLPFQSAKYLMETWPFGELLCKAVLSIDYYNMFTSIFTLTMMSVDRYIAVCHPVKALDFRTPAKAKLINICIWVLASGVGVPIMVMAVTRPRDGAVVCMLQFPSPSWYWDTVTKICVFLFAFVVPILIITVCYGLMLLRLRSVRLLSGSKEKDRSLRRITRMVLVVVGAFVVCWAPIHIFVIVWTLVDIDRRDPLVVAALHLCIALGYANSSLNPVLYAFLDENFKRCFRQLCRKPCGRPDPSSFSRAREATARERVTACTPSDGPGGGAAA
Sequence of Mu-type opioid receptor (P35372 whole entry): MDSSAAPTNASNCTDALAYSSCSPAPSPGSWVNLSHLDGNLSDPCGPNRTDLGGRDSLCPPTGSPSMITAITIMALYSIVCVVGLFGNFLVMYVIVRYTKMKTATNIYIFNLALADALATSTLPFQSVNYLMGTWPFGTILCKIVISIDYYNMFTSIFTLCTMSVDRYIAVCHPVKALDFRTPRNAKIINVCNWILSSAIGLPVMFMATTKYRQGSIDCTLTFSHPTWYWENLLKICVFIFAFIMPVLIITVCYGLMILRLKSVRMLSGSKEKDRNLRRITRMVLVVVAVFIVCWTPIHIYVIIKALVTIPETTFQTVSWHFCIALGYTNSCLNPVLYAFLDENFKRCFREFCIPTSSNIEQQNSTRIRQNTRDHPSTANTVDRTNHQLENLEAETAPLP
Sequence of Sodium-dependent dopamine transporter (Q01959 whole entry): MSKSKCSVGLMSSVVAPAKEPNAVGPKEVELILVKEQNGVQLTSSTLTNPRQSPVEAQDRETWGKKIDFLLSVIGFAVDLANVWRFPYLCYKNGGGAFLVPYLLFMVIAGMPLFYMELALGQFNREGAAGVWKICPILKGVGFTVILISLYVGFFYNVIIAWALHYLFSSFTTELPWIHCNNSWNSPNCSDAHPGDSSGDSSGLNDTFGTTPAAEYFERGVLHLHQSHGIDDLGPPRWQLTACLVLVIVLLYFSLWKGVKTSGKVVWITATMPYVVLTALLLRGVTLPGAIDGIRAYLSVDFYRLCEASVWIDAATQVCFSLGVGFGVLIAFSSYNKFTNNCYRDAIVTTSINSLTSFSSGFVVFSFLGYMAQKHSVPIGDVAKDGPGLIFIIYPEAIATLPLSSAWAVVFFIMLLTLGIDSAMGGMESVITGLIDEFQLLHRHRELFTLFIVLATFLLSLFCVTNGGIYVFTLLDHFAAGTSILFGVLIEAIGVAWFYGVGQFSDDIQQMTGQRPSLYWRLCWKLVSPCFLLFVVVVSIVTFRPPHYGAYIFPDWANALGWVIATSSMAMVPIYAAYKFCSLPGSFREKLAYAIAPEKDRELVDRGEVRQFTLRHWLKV
Sequence of Gamma-aminobutyric acid receptor subunit alpha-1 (P62813 whole entry): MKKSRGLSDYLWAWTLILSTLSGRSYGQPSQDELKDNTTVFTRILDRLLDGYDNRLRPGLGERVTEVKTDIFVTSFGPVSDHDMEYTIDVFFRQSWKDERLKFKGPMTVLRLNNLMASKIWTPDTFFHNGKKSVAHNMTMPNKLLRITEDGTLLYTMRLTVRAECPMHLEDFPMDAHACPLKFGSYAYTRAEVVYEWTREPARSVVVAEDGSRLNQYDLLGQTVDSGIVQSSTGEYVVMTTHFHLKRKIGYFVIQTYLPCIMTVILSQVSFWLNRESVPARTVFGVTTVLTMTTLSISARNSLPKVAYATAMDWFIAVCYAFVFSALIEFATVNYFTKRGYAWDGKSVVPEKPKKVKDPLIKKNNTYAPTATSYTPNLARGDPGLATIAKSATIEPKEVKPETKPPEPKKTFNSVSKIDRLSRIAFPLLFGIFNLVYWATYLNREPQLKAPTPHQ

Turning to `CC[C@H](C)C[C@H](C)CCCCCCCCC(=O)N[C@H]1C[C@@H](O)[C@@H](NCCN)NC(=O)[C@@H]2[C@@H](O)CCN2C(=O)[C@H]([C@H](O)CCN)NC(=O)[C@H]([C@H](O)[C@@H](O)c2ccc(O)cc2)NC(=O)[C@@H]2C[C@@H](O)CN2C(=O)[C@H]([C@@H](C)O)NC1=O` [CASPOFUNGIN], the AC50 in assay [1] was 4.13 µM; in assay [2], > 30 µM; at Mu-type opioid receptor, 5.12 µM; in assay [3], 10.8 µM; at Prothrombin, > 30 µM.
Turning to `N[C@@H](CS)C(=O)O` [CYSTEINE], the AC50 in assay [1] is > 30 µM; in assay [2], > 30 µM; at Mu-type opioid receptor, > 30 µM; in assay [3], > 30 µM; at Prothrombin, > 30 µM; in [4], 4.66 µM.
In the case of `CCc1nc(C(N)=O)c(Nc2ccc(N3CCC(N4CCN(C)CC4)CC3)c(OC)c2)nc1NC1CCOCC1` [GILTERITINIB], the AC50 in assay [1] was > 30 µM; in assay [2], > 30 µM; at Mu-type opioid receptor, > 30 µM; in assay [3] it was 16.4 µM; on Prothrombin it was > 30 µM; in assay [4] it was > 30 µM.
Consider `O=C(O)CO` [GLYCOLIC ACID], for which the half-maximal activity concentration (AC50) (in assay [1]; in assay [2]; on Mu-type opioid receptor; in assay [3]; at Prothrombin; in [4]) was > 30 µM each time.
For `CC(C)Cc1ccc(C(C)C(=O)O)cc1` (stereo not given) [IBUPROFEN], the AC50 (in assay [1]; in [2]; at Mu-type opioid receptor; in assay [5]; in [3]; in [6]) was > 30 µM in each case. For the same compound, the concentration at half-maximal activity (AC50) in [7] was > 10 µM; at Prothrombin it was > 30 µM; in assay [8] it was > 10 µM.
For the compound `OC[C@H]1O[C@@H](c2ccc(F)c(Cc3cc4ccccc4s3)c2)[C@H](O)[C@@H](O)[C@@H]1O` [IPRAGLIFLOZIN], the AC50 in assay [1] is 7.69 µM; in [2] it was > 30 µM; at Mu-type opioid receptor, > 30 µM; in assay [3], > 30 µM; at Prothrombin, > 30 µM; in assay [4], > 30 µM.
Turning to `CN1CCCCC1CCN1c2ccccc2Sc2ccc([S+](C)[O-])cc21` (stereo not given) [MESORIDAZINE], the AC50 in assay [1] was 19.8 µM; in assay [2], > 30 µM; at Mu-type opioid receptor it was 2.99 µM; in [3], 0.153 µM; on Prothrombin, > 30 µM; in assay [4] it was > 30 µM.
`CCOC(=O)c1c(C)cc2c(CO)n[nH]c(=O)c2c1C` [OXAGRELATE]: the AC50 (in assay [1]; in assay [2]; at Mu-type opioid receptor; in assay [3]; at Prothrombin; in [4]) was > 30 µM in each case.
For the compound `N#Cc1ccc2c(c1)N(CCCN1CCC(O)CC1)c1ccccc1S2` [PERICIAZINE], the AC50 in assay [2] is > 30 µM; on Mu-type opioid receptor, 4.59 µM; in assay [3], 5.87 µM; on Prothrombin, > 30 µM; in assay [9] it was 5.82 µM; in [4], 21.5 µM.
`CN1C(C(=O)Nc2ccccn2)=C(O)c2ccccc2S1(=O)=O` [PIROXICAM]: the AC50 was > 30 µM in assay [1]; > 30 µM in assay [2]; > 30 µM at Mu-type opioid receptor; > 30 µM in [5]; > 30 µM in [3]; > 10 µM in [6]. The AC50 in assay [7] was > 30 µM; on Prothrombin, > 30 µM; in assay [9] it was > 30 µM; in assay [8] it was > 10 µM.
Regarding `Nc1ccc(S(=O)(=O)Nc2nccs2)cc1` [SULFATHIAZOLE], the concentration at half-maximal activity (AC50) is > 30 µM in [5]; > 30 µM in [10]; > 30 µM in assay [6]; > 10 µM in [7]; > 30 µM in assay [9]; > 10 µM in assay [8].
Take `O=C1C(CC[S+]([O-])c2ccccc2)C(=O)N(c2ccccc2)N1c1ccccc1` (stereo not given) [SULFINPYRAZONE]: the AC50 in assay [5] was > 30 µM; in [10], > 10 µM; in [6] it was > 10 µM; in [7], > 10 µM; in assay [9], > 30 µM; in [8], > 10 µM.
Turning to `C=CC[C@@H]1/C=C(\C)C[C@H](C)C[C@H](OC)[C@H]2O[C@@](O)(C(=O)C(=O)N3CCCC[C@H]3C(=O)O[C@H](/C(C)=C/[C@@H]3CC[C@@H](O)[C@H](OC)C3)[C@H](C)[C@@H](O)CC1=O)[C@H](C)C[C@@H]2OC` [TACROLIMUS ANHYDROUS], the AC50 in [5], in [10], in assay [6], in assay [7], in assay [9] and in assay [8] was > 30 µM each time.
Take `CC1=C(/C=C/C(C)=C/C=C/C(C)=C/C(=O)O)C(C)(C)CCC1` [TRETINOIN]: the AC50 (in assay [1]; in assay [2]; on Mu-type opioid receptor; in [3]; on Prothrombin) was > 30 µM each time.
For the compound `Cc1onc(-c2ccccc2)c1-c1ccc(S(N)(=O)=O)cc1` [VALDECOXIB], the concentration at half-maximal activity (AC50) (in assay [1]; in assay [2]; on Mu-type opioid receptor; in assay [5]; in [10]; in assay [3]) was > 30 µM in each case. Besides, the half-maximal activity concentration (AC50) was > 30 µM in [6]; > 10 µM in assay [7]; > 30 µM at Prothrombin; > 30 µM in [9]; > 10 µM in assay [8].
